Test results reported in patent US20230084927A1, “GLUCOSE UPTAKE INHIBITORS AND USES THEREOF” (METABOMED LTD., priority 2019, published 2023).
Where two headings read alike, the source gives them in different places.

Key:
[1] = system: SDH-KO-HRAS cells (SDHB-deficient); assay: Cellular / differential toxicity assay (CellTiter-Glo, 3 days); type: cell-based, murine
How it was run: (§1)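 Isogenic SDHB-deficient (HRAS-transformed SDH-KO) and SDH-WT cells grown in DMEM-F12 with 1 mM glutamine and 3% FBS, plated with compound (10-point dilution from 10 uM to 0.0065 uM or lower) for 3 days at 37 °C, 5% CO2. Viability by CellTiter-Glo luminescence; EC50 calculated.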

SDH-WT cells = assay: as above; type: cell-based, murine
How it was run: as §1

ACHN WT, RCC cells = assay: Cell viability in SDH-deficient/proficient isogenic pairs; type: cell-based; conditions: Homo sapiens, cancer cells, 72 hours
Protocol: (§2) The cells were grown in DMEM F12 supplemented with 1 mM Glutamine+3% FBS were treated with different concentrations of the indicated compounds. Cell viability was determined 72 hours later by CellTiter Glue reagent (Promega), the luminescence was measured with ClarioStar reader (BMG) and the EC50s were calculated by Prism. Murine SDHB-WT/KO, HRAS transformed isogenic pair (FIG. 12A); UOK269, Human Tumor-derived SDHB-deficient RCC in their WT counterpart with re-expression of SDHB (FIG. 12B); and ACHN, RCC cells, and their SDHB-KO (SDHB CRISPRed out) isogenic cells (FIG. 12C).

[2] = system: ACHN SDHB −/− (SDHB CRISPRed out); assay: as above; type: cell-based; conditions: Homo sapiens, cancer cells, 72 hours
Protocol: as §2

UOK269 (SDHB-def.) RCC = assay: as above; type: cell-based, Human; conditions: Homo sapiens, tumor-derived, 72 hours
Protocol: as §2

[3] = system: UOK269-WT (re-expression of SDHB); assay: as above; type: cell-based, Human; conditions: Homo sapiens, tumor-derived, 72 hours
Protocol: as §2

[4] = system: 2-DeoxyGlucose phosphorylation in murine SDH-WT cells; assay: 2 DG phosphorylation assay; type: cell-based; conditions: Mus musculus, 0.25 h, 15 min, LC-MS
Protocol: IC50 of compound 145 and GluT1 inhibitor […] in a 2 DG phosphorylation assay was done using murine SDH-WT cells. The cells were treated for 15 min with the indicated compound at different concentrations in the presence of 2 DG. 2 DG phosphorylation was determined by LC-MS analysis and the inhibition IC50 was determined by Prism software.

[5] = Mus musculus, 72 h, toxicity, SDH-KO cells, 3 days, CellTiter-Glo, read-out: EC50 (uM) SDH-KO-HTAS-C17
[6] = Mus musculus, 72 h, toxicity, SDH-WT cells, 3 days, CellTiter-Glo, read-out: EC50 (uM) SDH-WT

Structure (SMILES) | EC50 [1, 5] | EC50 (SDH-WT cells; [6]) | also measured
CCCCNc1ncnc2c1sc1nc3c(cc12)COC(C)(C)C3 [Compound 217] | – | – | EC50 ([1]; toxicity, SDH-KO cells, 3 days, CellTiter-Glo, read-out: EC50 (uM) SDH-KO-HTAS-C17): 1 to 3 µM; EC50 (SDH-WT cells; toxicity, SDH-WT cells, 3 days, CellTiter-Glo, read-out: EC50 (uM) SDH-WT): 3 to 10 µM
COC(=O)c1ccc(CCNc2ncnc3c2sc2nc4c(cc23)COC(C)(C)C4)cc1 [Compound 130] | > 10 µM | > 10 µM | –
CC1(C)Cc2nc3sc4c(NCCc5ccc(OS(C)(=O)=O)cc5)ncnc4c3cc2CO1 [Compound 157] | > 10 µM | > 10 µM | –
CC1(C)Cc2nc3sc4c(N5CCN(C(c6ccccc6)c6ccccc6)CC5)ncnc4c3cc2CO1 [Compound 286] | > 10 µM | > 10 µM | –
CC1(C)Cc2nc3sc4c(NCc5ccccc5)ncnc4c3cc2CO1 [Compound 135] | > 10 µM | > 10 µM | –
c1cnc2sc3c(NCCc4ccc5[nH]cnc5c4)nc(C4CCCC4)nc3c2c1 [Compound 316, N-(2-(1H-Benzo[d]imidazol-5-yl)ethyl)-2-cyclopentylpyrido[3′,2′:4,5]thieno[3,2-d]pyrimidin-4-amine] | 3 to 10 µM | 3 to 10 µM | –
CC1(C)Cc2nc3sc4c(NCCc5ccc6[nH]c(=O)[nH]c6c5)ncnc4c3cc2CO1 [Compound 196] | < 1 µM | 3 to 10 µM | –
CC(C)Nc1ncnc2c1sc1nc3c(cc12)COC(C)(C)C3 [Compound 134] | > 10 µM | > 10 µM | –
CN(Cc1ccccc1)c1ncnc2c1sc1nc3c(cc12)COC(C)(C)C3 [Compound 292] | > 10 µM | > 10 µM | –
Cc1c(NC(=O)c2cc(C(N)=O)nc3cc(F)ccc23)c(C(F)(F)F)nn1Cc1ccc(C#N)cc1 [BAY-876, reference compound] | – | – | EC50 ([1]; Mus musculus, 72 h, Murine SDH-KO, transformed, 72 hours, Example 8, read-out: EC50): 0.00095 µM; EC50 (SDH-WT cells; Mus musculus, 72 h, Murine SDH-WT, transformed, 72 hours, Example 8, read-out: EC50): 0.134 µM; EC50 (ACHN WT, RCC cells): 24200 nM; EC50 [2]: 256 nM; EC50 (UOK269 (SDHB-def.) RCC): 15 nM; EC50 [3]: 5300 nM; IC50 [4]: 21.6 nM
CC1(C)Cc2nc3sc4c(NCCc5ccc6ocnc6c5)ncnc4c3cc2CO1 [Compound 175] | 1 to 3 µM | 3 to 10 µM | –
CC1(C)Cc2nc3sc4c(NCCc5ccc(-c6ncco6)cc5)ncnc4c3cc2CO1 [Compound 147] | < 1 µM | 3 to 10 µM | –
CC1CCN(c2ncnc3c2sc2nc4c(cc23)COC(C)(C)C4)CC1 [Compound 245] | > 10 µM | > 10 µM | –
CC1(C)Cc2nc3sc4c(NCCc5ccc6[nH]c(N)nc6c5)ncnc4c3cc2CO1 [Compound 189] | < 1 µM | 1 to 3 µM | –
CCCCN(CC)c1ncnc2c1sc1nc3c(cc12)COC(C)(C)C3 [Compound 256] | 3 to 10 µM | 3 to 10 µM | –
CC1(C)Cc2nc3sc4c(NCCc5ccc(NC(N)=O)cc5)ncnc4c3cc2CO1 [Compound 141] | < 1 µM | > 10 µM | –
CC(CNc1ncnc2c1sc1nc3c(cc12)COC(C)(C)C3)c1ccc2c(c1)ncn2C (stereo not shown) [Compound 172] | 3 to 10 µM | 3 to 10 µM | –
CC1(C)Cc2nc3sc4c(NCCc5ccc6[nH]cnc6c5)ncnc4c3c(COC3CCOCC3)c2CO1 [Compound 324, N-(2-(1H-Benzo[d]imidazol-5-yl)ethyl)-8,8-dimethyl-11-(((tetrahydro-2H-pyran-4-yl)oxy)methyl)-7,10-dihydro-8H-pyrano[3″,4″:5′,6′]pyrido[3′,2′:4,5]thieno[3,2-d]pyrimidin-4-amine] | < 1 µM | < 1 µM | –
CC(O)c1nc2cc(CCNc3ncnc4c3sc3nc5c(cc34)COC(C)(C)C5)ccc2[nH]1 (stereo not shown) [Compound 177] | 1 to 3 µM | 3 to 10 µM | –
CCN(CC)c1ncnc2c1sc1nc3c(cc12)COC(C)(C)C3 [Compound 297] | 3 to 10 µM | > 10 µM | –

Structure (SMILES) | EC50 [1, 5] | EC50 (SDH-WT cells; [6]) | also measured
Cc1nc(NC2CCCCC2)c2sc3nc4c(cc3c2n1)COC(C)(C)C4 [Compound 264] | 3 to 10 µM | > 10 µM | –
CCOC1CCc2nc3sc4c(NCCc5ccc(OC)c(F)c5)ncnc4c3cc2C1 (stereo not shown) [Compound 101] | > 10 µM | > 10 µM | –
CC1(C)Cc2nc3sc4c(NCCc5ccc6[nH]cnc6c5)ncnc4c3c(COC3CCCCC3)c2CO1 [Compound 327, N-(2-(1H-Benzo[d]imidazol-5-yl)ethyl)-11-((cyclohexyloxy)methyl)-8,8-dimethyl-7,10-dihydro-8H-pyrano[3″,4″:5′,6′]pyrido[3′,2′:4,5]thieno[3,2-d]pyrimidin-4-amine] | < 1 µM | < 1 µM | –
CC1(C)Cc2nc3c(c(S(C)(=O)=O)c2CO1)-c1ncnc(NCCc2ccc4[nH]cnc4c2)c1S3(=O)=O [Compound 166] | 3 to 10 µM | 3 to 10 µM | –
COc1cccc(CCNc2ncnc3c2sc2nc4c(cc23)COC(C)(C)C4)c1 [Compound 117] | 3 to 10 µM | > 10 µM | –
CC1(C)Cc2nc3sc4c(N(CCO)CCO)ncnc4c3cc2CO1 [Compound 275] | > 10 µM | > 10 µM | –
CC1(C)Cc2nc3sc4c(NCCc5ccc6[nH]nnc6c5)ncnc4c3cc2CO1 [Compound 201] | < 1 µM | 1 to 3 µM | –
CC(C)c1nc(NCCc2ccc3[nH]cnc3c2)c2sc3ncccc3c2n1 [Compound 312, N-(2-(1H-Benzo[d]imidazol-5-yl)ethyl)-2-isopropylpyrido[3′,2′:4,5]thieno[3,2-d]pyrimidin-4-amine] | 3 to 10 µM | 3 to 10 µM | –
CC1(C)Cc2nc3sc4c(NCc5ccco5)ncnc4c3cc2CO1 [Compound 232] | > 10 µM | > 10 µM | –
CC1(C)Cc2nc3sc4c(NCCc5ccc(-c6cncs6)cc5)ncnc4c3cc2CO1 [Compound 148] | < 1 µM | > 10 µM | –
CC(C)C(=O)Nc1ccc(CCNc2ncnc3c2sc2nc4c(cc23)COC(C)(C)C4)cc1[N+](=O)[O-] [Compound 199] | 1 to 3 µM | 1 to 3 µM | –
COCCOCCOCCOCc1c2c(nc3sc4c(NCCc5ccc6[nH]cnc6c5)ncnc4c13)CC(C)(C)OC2 [Compound 305] | < 1 µM | > 10 µM | –
COc1ccc(CCNc2ncnc3c2sc2nc4c(cc23)CN(C)CC4)cc1F [Compound 106, N-(3-Fluoro-4-methoxyphenethyl)-9-methyl-7,8,9,10-tetrahydropyrimido[4′,5′:4,5]-thieno[2,3-b][1,6]naphthyridin-4-amine] | 3 to 10 µM | 3 to 10 µM | –
CC1(C)Cc2nc3sc4c(NCCc5ccc(NC(=O)C(F)(F)F)c(F)c5)ncnc4c3cc2CO1 [Compound 200] | 1 to 3 µM | 3 to 10 µM | –
OC1CCc2nc3sc4c(NCCc5ccc6[nH]cnc6c5)ncnc4c3cc2C1 (stereo not shown) [Compound 169] | < 1 µM | 1 to 3 µM | –
CCC(C)Nc1nc(C)nc2c1sc1nc3c(cc12)COC(C)(C)C3 (stereo not shown) [Compound 219] | 3 to 10 µM | > 10 µM | –
COCCOCCOCCOCCOCCOCc1c2c(nc3sc4c(NCCc5ccc6[nH]cnc6c5)ncnc4c13)CC(C)(C)OC2 [Compound 214] | 1 to 3 µM | > 10 µM | –
CC(=O)OC1CCc2nc3sc4c(NCCc5ccc6[nH]cnc6c5)ncnc4c3cc2C1 (stereo not shown) [Compound 168] | < 1 µM | 1 to 3 µM | –
COc1ccc(CCNc2ncnc3c2sc2nc(C=C(C)C)c(CCl)cc23)cc1F [Compound 104] | 1 to 3 µM | 3 to 10 µM | –
COc1ccc(CCNc2ncnc3c2sc2nc4c(cc23)COC(C)(C)C4)cc1 [Compound 129] | < 1 µM | > 10 µM | –
